According to US11078170B2 (Assembly Biosciences, Inc., priority 2017, dated 2021):

Test system: HBV viral production from HepAD38 cells
Test: Activity of test compounds on viral production from HepAD38 cells (viral load by qPCR of HBV core sequence in supernatant)
Format: cell-based
Settings: Hepatitis B virus, 120 h, 5 days incubation, HBV DNA in supernatant by qPCR, top concentration 10 μM, read-out: Viral Load EC50 Activity range
Procedure, shortened: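 HepAD38 cells, 50,000/well in tetracycline-free 2% FBS medium, treated 5 days at 37° C. with compound from 10 μM top concentration. HBV DNA in supernatant quantified by TaqMan qPCR of core sequence against DNA standards, relative to DMSO wells; CellTiter-Glo viability read in parallel. EC50/CC50 from four-parameter logistic fit.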

**Q.** Which EC50 does the source give for CN1[C@H](C(=O)Nc2ccc(F)c(Cl)c2)C[C@H](c2ccc(-c3ccnn3C)s2)NS1(=O)=O [HBV-CSU-271-ISO-I, Cis-N-(3-chloro-4-fluorophenyl)-2-methyl-5-(5-(1-methyl-1H-pyrazol-5-yl)thiophen-2-yl)-1,2,6-thiadiazinane-3-carboxamide 1,1-dioxide] here?
**A.** < 1000 nM

**Q.** With CN1[C@@H](C(=O)Nc2ccc(F)c(Cl)c2)C[C@@H](c2ccc(-c3ccnn3C)s2)NS1(=O)=O [HBV-CSU-271-ISO-II, Cis-N-(3-chloro-4-fluorophenyl)-2-methyl-5-(5-(1-methyl-1H-pyrazol-5-yl)thiophen-2-yl)-1,2,6-thiadiazinane-3-carboxamide 1,1-dioxide] as the compound, how does the EC50 read?
**A.** 1000 to 5000 nM

**Q.** CN1[C@H](C(=O)Nc2ccc(F)c(Cl)c2)C[C@H](c2ccc(-c3cncnc3)s2)NS1(=O)=O [HBV-CSU-272-ISO-I, Cis-N-(3-chloro-4-fluorophenyl)-2-methyl-5-(5-(pyrimidin-5-yl)thiophen-2-yl)-1,2,6-thiadiazinane-3-carboxamide 1,1-dioxide] was tested. Which EC50 did it give?
**A.** < 1000 nM

**Q.** How did the EC50 turn out when CN1[C@@H](C(=O)Nc2ccc(F)c(Cl)c2)C[C@@H](c2ccc(-c3cncnc3)s2)NS1(=O)=O [HBV-CSU-272-ISO-II, Cis-N-(3-chloro-4-fluorophenyl)-2-methyl-5-(5-(pyrimidin-5-yl)thiophen-2-yl)-1,2,6-thiadiazinane-3-carboxamide 1,1-dioxide] was run?
**A.** > 5000 nM

**Q.** CN1C(C(=O)Nc2ccc(F)c(Cl)c2)CC(c2ccc3ncsc3c2)NS1(=O)=O (stereo not drawn) [HBV-CSU-273, Cis-5-(benzo[d]thiazol-6-yl)-N-(3-chloro-4-fluorophenyl)-2-methyl-1,2,6-thiadiazinane-3-carboxamide 1,1-dioxide] was tested. Which EC50 did it give?
**A.** < 1000 nM

**Q.** For CN1[C@H](C(=O)Nc2ccc(F)c(Cl)c2)C[C@H](c2ncc(-c3cn(C)cn3)s2)NS1(=O)=O [HBV-CSU-276-ISO-I, (3S,5R)-N-(3-chloro-4-fluorophenyl)-2-methyl-5-(5-(1-methyl-1H-imidazol-4-yl)thiazol-2-yl)-1,2,6-thiadiazinane-3-carboxamide 1,1-dioxide], which EC50 is on record?
**A.** < 1000 nM

**Q.** With CN1[C@@H](C(=O)Nc2ccc(F)c(Cl)c2)C[C@@H](c2ncc(-c3cn(C)cn3)s2)NS1(=O)=O [HBV-CSU-276-ISO-II, Cis-N-(3-Chloro-4-fluorophenyl)-2-methyl-5-(5-(1-methyl-1H-imidazol-4-yl)thiazol-2-yl)-1,2,6-thiadiazinane-3-carboxamide 1,1-dioxide] as the compound, how does the EC50 read?
**A.** > 5000 nM

**Q.** Which EC50 does the source give for CN1[C@@H](C(=O)Nc2ccc(F)c(Cl)c2)C[C@H](c2ncc(-c3cn(C)cn3)s2)NS1(=O)=O [HBV-CSU-276-Trans-ISO-I, (3R,5R)-N-(3-chloro-4-fluorophenyl)-2-methyl-5-(5-(1-methyl-1H-imidazol-4-yl)thiazol-2-yl)-1,2,6-thiadiazinane-3-carboxamide 1,1-dioxide] here?
**A.** < 1000 nM

**Q.** For CN1[C@H](C(=O)Nc2ccc(F)c(Cl)c2)C[C@@H](c2ncc(-c3cn(C)cn3)s2)NS1(=O)=O [HBV-CSU-276-Trans-ISO-II, (3S,5S)-N-(3-chloro-4-fluorophenyl)-2-methyl-5-(5-(1-methyl-1H-imidazol-4-yl)thiazol-2-yl)-1,2,6-thiadiazinane-3-carboxamide 1,1-dioxide], which EC50 is on record?
**A.** 1000 to 5000 nM

**Q.** Which EC50 does the source give for CN1[C@H](C(=O)Nc2ccc(F)c(Cl)c2)C[C@H](c2ncc(-c3cncn3C)s2)NS1(=O)=O [HBV-CSU-277-ISO-I, Cis-N-(3-Chloro-4-fluorophenyl)-2-methyl-5-(5-(1-methyl-1H-imidazol-5-yl)thiazol-2-yl)-1,2,6-thiadiazinane-3-carboxamide 1,1-dioxide] here?
**A.** < 1000 nM

**Q.** How did the EC50 turn out when CN1[C@@H](C(=O)Nc2ccc(F)c(Cl)c2)C[C@@H](c2ncc(-c3cncn3C)s2)NS1(=O)=O [HBV-CSU-277-ISO-II, Cis-N-(3-Chloro-4-fluorophenyl)-2-methyl-5-(5-(1-methyl-1H-imidazol-5-yl)thiazol-2-yl)-1,2,6-thiadiazinane-3-carboxamide 1,1-dioxide] was run?
**A.** > 5000 nM

**Q.** With CN1[C@@H](C(=O)Nc2ccc(F)c(Cl)c2)C[C@@H](c2ncc(-c3cncs3)s2)NS1(=O)=O [HBV-CSU-278-ISO-II, Cis-5-([5,5′-Bithiazol]-2-yl)-N-(3-chloro-4-fluorophenyl)-2-methyl-1,2,6-thiadiazinane-3-carboxamide 1,1-dioxide] as the compound, how does the EC50 read?
**A.** > 5000 nM

**Q.** How did the EC50 turn out when CN1[C@H](C(=O)Nc2ccc(F)c(Cl)c2)C[C@H](c2ncc(-c3ccnn3C)s2)NS1(=O)=O [HBV-CSU-281-ISO-I, Cis-N-(3-Chloro-4-fluorophenyl)-2-methyl-5-(5-(1-methyl-1H-pyrazol-5-yl)thiazol-2-yl)-1,2,6-thiadiazinane-3-carboxamide 1,1-dioxide] was run?
**A.** < 1000 nM

**Q.** With CN1[C@@H](C(=O)Nc2ccc(F)c(Cl)c2)C[C@@H](c2ncc(-c3ccnn3C)s2)NS1(=O)=O [HBV-CSU-281-ISO-II, Cis-N-(3-Chloro-4-fluorophenyl)-2-methyl-5-(5-(1-methyl-1H-pyrazol-5-yl)thiazol-2-yl)-1,2,6-thiadiazinane-3-carboxamide 1,1-dioxide] as the compound, how does the EC50 read?
**A.** 1000 to 5000 nM

**Q.** CN1C(C(=O)Nc2ccc(F)c(Cl)c2)CC(c2ccc(Br)c(F)c2)NS1(=O)=O (stereo not drawn) [HBV-CSU-283, Cis-5-(4-Bromo-3-fluorophenyl)-N-(3-chloro-4-fluorophenyl)-2-methyl-1,2,6-thiadiazinane-3-carboxamide 1,1-dioxide] was tested. Which EC50 did it give?
**A.** < 1000 nM

**Q.** CN1[C@H](C(=O)Nc2ccc(F)c(Cl)c2)C[C@H](c2cc(-c3cncn3C)cs2)NS1(=O)=O [HBV-CSU-285-ISO-I, Cis-N-(3-Chloro-4-fluorophenyl)-2-methyl-5-(4-(1-methyl-1H-imidazol-5-yl)thiophen-2-yl)-1,2,6-thiadiazinane-3-carboxamide 1,1-dioxide] was tested. Which EC50 did it give?
**A.** < 1000 nM

**Q.** For CN1[C@H](C(=O)Nc2ccc(F)c(Cl)c2)C[C@H](c2cc(-c3cncs3)cs2)NS1(=O)=O [HBV-CSU-286-ISO-I, Cis-N-(3-Chloro-4-fluorophenyl)-2-methyl-5-(4-(thiazol-5-yl)thiophen-2-yl)-1,2,6-thiadiazinane-3-carboxamide 1,1-dioxide], which EC50 is on record?
**A.** < 1000 nM

**Q.** Which EC50 does the source give for CN1[C@@H](C(=O)Nc2ccc(F)c(Cl)c2)C[C@@H](c2cc(-c3cncs3)cs2)NS1(=O)=O [HBV-CSU-286-ISO-II, Cis-N-(3-Chloro-4-fluorophenyl)-2-methyl-5-(4-(thiazol-5-yl)thiophen-2-yl)-1,2,6-thiadiazinane-3-carboxamide 1,1-dioxide] here?
**A.** 1000 to 5000 nM

**Q.** How did the EC50 turn out when CN1[C@H](C(=O)Nc2ccc(F)c(Cl)c2)C[C@H](c2cc(-c3ccn(C)n3)cs2)NS1(=O)=O [HBV-CSU-288-ISO-I, Cis-N-(3-Chloro-4-fluorophenyl)-2-methyl-5-(4-(1-methyl-1H-pyrazol-3-yl)thiophen-2-yl)-1,2,6-thiadiazinane-3-carboxamide 1,1-dioxide] was run?
**A.** < 1000 nM

**Q.** For CN1[C@@H](C(=O)Nc2ccc(F)c(Cl)c2)C[C@@H](c2cc(-c3ccn(C)n3)cs2)NS1(=O)=O [HBV-CSU-288-ISO-II, Cis-N-(3-Chloro-4-fluorophenyl)-2-methyl-5-(4-(1-methyl-1H-pyrazol-3-yl)thiophen-2-yl)-1,2,6-thiadiazinane-3-carboxamide 1,1-dioxide], which EC50 is on record?
**A.** 1000 to 5000 nM

**Q.** CN1[C@@H](C(=O)Nc2ccc(F)c(Cl)c2)C[C@@H](c2cc(-c3ccnn3C)cs2)NS1(=O)=O [HBV-CSU-289-ISO-II, Cis-N-(3-chloro-4-fluorophenyl)-2-methyl-5-(4-(1-methyl-1H-pyrazol-5-yl)thiophen-2-yl)-1,2,6-thiadiazinane-3-carboxamide 1,1-dioxide] was tested. Which EC50 did it give?
**A.** 1000 to 5000 nM

**Q.** With CN1[C@H](C(=O)Nc2ccc(F)c(Cl)c2)C[C@H](c2cc(-c3cncnc3)cs2)NS1(=O)=O [HBV-CSU-290-ISO-I, Cis-N-(3-chloro-4-fluorophenyl)-2-methyl-5-(4-(pyrimidin-5-yl)thiophen-2-yl)-1,2,6-thiadiazinane-3-carboxamide 1,1-dioxide] as the compound, how does the EC50 read?
**A.** < 1000 nM

**Q.** How did the EC50 turn out when CN1[C@@H](C(=O)Nc2ccc(F)c(Cl)c2)C[C@@H](c2cc(-c3cncnc3)cs2)NS1(=O)=O [HBV-CSU-290-ISO-II, Cis-N-(3-chloro-4-fluorophenyl)-2-methyl-5-(4-(pyrimidin-5-yl)thiophen-2-yl)-1,2,6-thiadiazinane-3-carboxamide 1,1-dioxide] was run?
**A.** 1000 to 5000 nM

**Q.** With CCn1cc(-c2ccc([C@H]3C[C@@H](C(=O)Nc4ccc(F)c(Cl)c4)N(C)S(=O)(=O)N3)s2)cn1 [HBV-CSU-291-ISO-I, Cis-N-(3-chloro-4-fluorophenyl)-5-(5-(1-ethyl-1H-pyrazol-4-yl)thiophen-2-yl)-2-methyl-1,2,6-thiadiazinane-3-carboxamide 1,1-dioxide] as the compound, how does the EC50 read?
**A.** < 1000 nM

**Q.** With CCn1cc(-c2ccc([C@@H]3C[C@H](C(=O)Nc4ccc(F)c(Cl)c4)N(C)S(=O)(=O)N3)s2)cn1 [HBV-CSU-291-ISO-II, Cis-N-(3-chloro-4-fluorophenyl)-5-(5-(1-ethyl-1H-pyrazol-4-yl)thiophen-2-yl)-2-methyl-1,2,6-thiadiazinane-3-carboxamide 1,1-dioxide] as the compound, how does the EC50 read?
**A.** > 5000 nM

**Q.** How did the EC50 turn out when CC(C)n1cc(-c2ccc([C@H]3C[C@@H](C(=O)Nc4ccc(F)c(Cl)c4)N(C)S(=O)(=O)N3)s2)cn1 [HBV-CSU-292-ISO-I, Cis-N-(3-chloro-4-fluorophenyl)-5-(5-(1-isopropyl-1H-pyrazol-4-yl)thiophen-2-yl)-2-methyl-1,2,6-thiadiazinane-3-carboxamide 1,1-dioxide] was run?
**A.** < 1000 nM

**Q.** For CC(C)n1cc(-c2ccc([C@@H]3C[C@H](C(=O)Nc4ccc(F)c(Cl)c4)N(C)S(=O)(=O)N3)s2)cn1 [HBV-CSU-292-ISO-II, Cis-N-(3-chloro-4-fluorophenyl)-5-(5-(1-isopropyl-1H-pyrazol-4-yl)thiophen-2-yl)-2-methyl-1,2,6-thiadiazinane-3-carboxamide 1,1-dioxide], which EC50 is on record?
**A.** 1000 to 5000 nM

**Q.** Which EC50 does the source give for CN1[C@H](C(=O)Nc2ccc(F)c(Cl)c2)C[C@H](c2ccc(-c3cnn(CCO)c3)s2)NS1(=O)=O [HBV-CSU-293-ISO-I, Cis-N-(3-chloro-4-fluorophenyl)-5-(5-(1-(2-hydroxyethyl)-1H-pyrazol-4-yl)thiophen-2-yl)-2-methyl-1,2,6-thiadiazinane-3-carboxamide 1,1-dioxide] here?
**A.** < 1000 nM
